Experiment [1] addresses Ribosomal protein S6 kinase alpha-4 (Homo sapiens) (UniProt O75676). Description: Selectivity interaction (Kinase panel (Z-LYTE Assay)) EUB0001632a RPS6KA4. To be noted: at 10 µM.
Another experiment concerns the target Ephrin type-A receptor 4 (Homo sapiens, UniProt P54764). To be noted: at 10 µM.
Experiment [2] concerns the target Cyclin-dependent kinase 4/cyclin D1 (Homo sapiens) (UniProt P11802+P24385). To be noted: at 10 µM.
The target of experiment [3] is T1, Histone-arginine methyltransferase CARM1 (Homo sapiens) (UniProt Q86X55).
T1 sequence (whole entry): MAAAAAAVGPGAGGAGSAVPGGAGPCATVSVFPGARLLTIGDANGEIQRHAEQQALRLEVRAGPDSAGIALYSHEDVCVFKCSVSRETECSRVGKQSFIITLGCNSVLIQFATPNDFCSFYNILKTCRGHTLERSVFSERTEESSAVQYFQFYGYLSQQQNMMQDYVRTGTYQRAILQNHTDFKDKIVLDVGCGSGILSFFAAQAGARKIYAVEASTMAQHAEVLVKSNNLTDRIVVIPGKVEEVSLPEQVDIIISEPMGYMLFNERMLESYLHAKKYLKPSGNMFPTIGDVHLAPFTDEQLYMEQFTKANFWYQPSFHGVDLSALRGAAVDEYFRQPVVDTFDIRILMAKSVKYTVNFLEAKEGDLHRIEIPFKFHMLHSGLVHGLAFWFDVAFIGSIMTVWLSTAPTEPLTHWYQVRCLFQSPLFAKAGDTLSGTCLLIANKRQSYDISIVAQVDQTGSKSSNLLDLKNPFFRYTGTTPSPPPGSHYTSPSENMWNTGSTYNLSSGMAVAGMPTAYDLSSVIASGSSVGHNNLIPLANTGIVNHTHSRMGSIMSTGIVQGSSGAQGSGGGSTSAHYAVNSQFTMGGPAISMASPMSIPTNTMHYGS
Description: Selectivity interaction (Transferase panel (protein, RNA, and DNA methyltransferases. and EP300 (acetyltransferase))) EUB0000270b CARM1.

For experiment [4], the target named is T2, Rhodopsin kinase GRK7 (Homo sapiens) (UniProt Q8WTQ7).
T2 sequence (whole entry): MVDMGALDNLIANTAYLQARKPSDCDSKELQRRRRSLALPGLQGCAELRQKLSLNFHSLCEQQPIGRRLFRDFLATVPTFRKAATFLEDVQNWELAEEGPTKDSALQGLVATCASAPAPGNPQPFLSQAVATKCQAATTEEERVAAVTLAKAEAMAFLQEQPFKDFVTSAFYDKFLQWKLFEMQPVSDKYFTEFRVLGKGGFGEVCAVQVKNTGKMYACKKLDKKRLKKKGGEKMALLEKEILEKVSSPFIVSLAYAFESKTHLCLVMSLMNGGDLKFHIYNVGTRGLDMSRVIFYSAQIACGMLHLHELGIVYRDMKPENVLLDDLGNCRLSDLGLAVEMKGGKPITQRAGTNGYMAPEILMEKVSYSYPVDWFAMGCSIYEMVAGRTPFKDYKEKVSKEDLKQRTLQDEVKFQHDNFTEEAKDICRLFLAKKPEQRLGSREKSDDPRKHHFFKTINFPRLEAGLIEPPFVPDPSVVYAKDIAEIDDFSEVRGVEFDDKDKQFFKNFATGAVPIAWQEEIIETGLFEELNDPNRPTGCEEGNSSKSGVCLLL
Description: Selectivity interaction (KinomeScan (DiscoverX)) EUB0000618a GRK7. To be noted: at 10 µM.

Experiment [5] has as its target Serine/threonine-protein kinase SIK1 (Homo sapiens) (UniProt P57059). Description: Selectivity interaction (KinomeScan (DiscoverX)) EUB0000092b SIK1. To be noted: at 10 µM.
Experiment [6] addresses T3, Ephrin type-A receptor 6 (Homo sapiens) (UniProt Q9UF33).
T3 sequence (whole entry): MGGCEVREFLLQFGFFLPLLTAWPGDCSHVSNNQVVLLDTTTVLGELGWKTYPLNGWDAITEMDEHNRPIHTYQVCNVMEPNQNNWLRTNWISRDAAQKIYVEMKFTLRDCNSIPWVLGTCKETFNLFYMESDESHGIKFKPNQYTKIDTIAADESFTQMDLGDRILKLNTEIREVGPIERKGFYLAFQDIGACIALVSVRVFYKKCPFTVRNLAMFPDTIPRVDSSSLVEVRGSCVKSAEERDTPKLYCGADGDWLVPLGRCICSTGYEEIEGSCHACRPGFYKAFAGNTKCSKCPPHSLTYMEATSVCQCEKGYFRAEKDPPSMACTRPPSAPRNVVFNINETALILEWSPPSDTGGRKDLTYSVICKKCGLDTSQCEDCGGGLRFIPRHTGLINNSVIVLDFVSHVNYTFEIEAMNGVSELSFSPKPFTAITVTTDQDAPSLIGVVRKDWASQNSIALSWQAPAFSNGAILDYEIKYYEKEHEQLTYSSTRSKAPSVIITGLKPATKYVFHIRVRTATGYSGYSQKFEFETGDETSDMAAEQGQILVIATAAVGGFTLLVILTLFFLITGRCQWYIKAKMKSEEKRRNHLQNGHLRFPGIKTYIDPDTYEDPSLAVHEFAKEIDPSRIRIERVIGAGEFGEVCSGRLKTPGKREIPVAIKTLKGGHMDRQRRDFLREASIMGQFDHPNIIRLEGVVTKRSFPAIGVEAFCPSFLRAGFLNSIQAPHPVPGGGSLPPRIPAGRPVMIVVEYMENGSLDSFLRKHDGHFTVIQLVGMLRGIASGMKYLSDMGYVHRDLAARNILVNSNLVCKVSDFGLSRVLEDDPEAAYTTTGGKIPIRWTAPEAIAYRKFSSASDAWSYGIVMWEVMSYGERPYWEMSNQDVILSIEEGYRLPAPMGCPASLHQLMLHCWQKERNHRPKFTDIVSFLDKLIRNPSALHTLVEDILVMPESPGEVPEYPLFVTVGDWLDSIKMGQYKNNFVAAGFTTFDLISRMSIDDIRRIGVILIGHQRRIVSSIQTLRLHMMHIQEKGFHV
The experiment in a line: Selectivity interaction (KinomeScan (DiscoverX)) EUB0001079a EPHA6. To be noted: at 1 µM.

% of control and % activity data for seven molecules are collected here from ChEMBL document CHEMBL5465560, “Selectivity Literature for EUbOPEN Chemogenomic Library” (2024).

Chain of Serine/threonine-protein kinase SIK1 (Homo sapiens) (P57059 whole entry): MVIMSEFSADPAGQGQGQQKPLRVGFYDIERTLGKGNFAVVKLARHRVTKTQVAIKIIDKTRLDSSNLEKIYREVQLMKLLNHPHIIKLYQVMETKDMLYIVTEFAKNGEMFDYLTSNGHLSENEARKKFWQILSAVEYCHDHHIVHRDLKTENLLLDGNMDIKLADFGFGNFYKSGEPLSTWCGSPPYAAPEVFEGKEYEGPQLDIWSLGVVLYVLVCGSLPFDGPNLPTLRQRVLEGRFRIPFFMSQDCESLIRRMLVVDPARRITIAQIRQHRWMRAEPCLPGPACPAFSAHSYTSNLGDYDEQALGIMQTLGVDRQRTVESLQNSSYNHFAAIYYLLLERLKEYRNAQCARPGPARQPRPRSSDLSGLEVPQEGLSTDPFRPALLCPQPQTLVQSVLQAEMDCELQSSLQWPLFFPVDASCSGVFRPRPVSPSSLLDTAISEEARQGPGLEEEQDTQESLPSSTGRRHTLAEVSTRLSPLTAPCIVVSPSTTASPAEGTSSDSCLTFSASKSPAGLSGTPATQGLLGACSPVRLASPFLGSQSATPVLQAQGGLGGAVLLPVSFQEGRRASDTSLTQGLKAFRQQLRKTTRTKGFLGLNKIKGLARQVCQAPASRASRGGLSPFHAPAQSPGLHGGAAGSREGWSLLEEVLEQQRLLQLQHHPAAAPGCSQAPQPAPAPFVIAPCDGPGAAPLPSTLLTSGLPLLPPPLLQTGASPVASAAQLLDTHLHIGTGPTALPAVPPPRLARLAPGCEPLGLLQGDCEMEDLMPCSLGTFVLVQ
Chain of Ribosomal protein S6 kinase alpha-4 (Homo sapiens) (O75676 whole entry, looked up): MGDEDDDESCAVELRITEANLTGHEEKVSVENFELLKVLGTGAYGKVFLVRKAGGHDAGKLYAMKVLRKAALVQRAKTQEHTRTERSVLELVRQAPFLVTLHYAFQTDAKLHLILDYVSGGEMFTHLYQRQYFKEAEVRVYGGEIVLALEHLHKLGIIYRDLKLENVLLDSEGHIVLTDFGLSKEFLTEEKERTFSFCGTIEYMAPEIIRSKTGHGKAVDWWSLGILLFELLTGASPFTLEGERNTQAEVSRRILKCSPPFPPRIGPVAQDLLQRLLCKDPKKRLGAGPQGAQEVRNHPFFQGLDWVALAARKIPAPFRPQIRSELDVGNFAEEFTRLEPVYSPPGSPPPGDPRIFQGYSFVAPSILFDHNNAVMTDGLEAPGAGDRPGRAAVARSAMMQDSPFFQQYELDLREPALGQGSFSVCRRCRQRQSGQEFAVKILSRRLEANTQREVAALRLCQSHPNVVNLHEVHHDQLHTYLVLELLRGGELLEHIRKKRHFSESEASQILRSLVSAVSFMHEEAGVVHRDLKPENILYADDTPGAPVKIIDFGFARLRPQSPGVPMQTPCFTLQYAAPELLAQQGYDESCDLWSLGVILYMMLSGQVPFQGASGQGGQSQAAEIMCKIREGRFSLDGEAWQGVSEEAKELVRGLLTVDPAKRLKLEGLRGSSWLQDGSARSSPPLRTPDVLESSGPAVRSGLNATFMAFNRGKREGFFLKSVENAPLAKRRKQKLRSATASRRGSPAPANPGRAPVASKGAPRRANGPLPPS
Chain of Ephrin type-A receptor 4 (P54764 whole entry): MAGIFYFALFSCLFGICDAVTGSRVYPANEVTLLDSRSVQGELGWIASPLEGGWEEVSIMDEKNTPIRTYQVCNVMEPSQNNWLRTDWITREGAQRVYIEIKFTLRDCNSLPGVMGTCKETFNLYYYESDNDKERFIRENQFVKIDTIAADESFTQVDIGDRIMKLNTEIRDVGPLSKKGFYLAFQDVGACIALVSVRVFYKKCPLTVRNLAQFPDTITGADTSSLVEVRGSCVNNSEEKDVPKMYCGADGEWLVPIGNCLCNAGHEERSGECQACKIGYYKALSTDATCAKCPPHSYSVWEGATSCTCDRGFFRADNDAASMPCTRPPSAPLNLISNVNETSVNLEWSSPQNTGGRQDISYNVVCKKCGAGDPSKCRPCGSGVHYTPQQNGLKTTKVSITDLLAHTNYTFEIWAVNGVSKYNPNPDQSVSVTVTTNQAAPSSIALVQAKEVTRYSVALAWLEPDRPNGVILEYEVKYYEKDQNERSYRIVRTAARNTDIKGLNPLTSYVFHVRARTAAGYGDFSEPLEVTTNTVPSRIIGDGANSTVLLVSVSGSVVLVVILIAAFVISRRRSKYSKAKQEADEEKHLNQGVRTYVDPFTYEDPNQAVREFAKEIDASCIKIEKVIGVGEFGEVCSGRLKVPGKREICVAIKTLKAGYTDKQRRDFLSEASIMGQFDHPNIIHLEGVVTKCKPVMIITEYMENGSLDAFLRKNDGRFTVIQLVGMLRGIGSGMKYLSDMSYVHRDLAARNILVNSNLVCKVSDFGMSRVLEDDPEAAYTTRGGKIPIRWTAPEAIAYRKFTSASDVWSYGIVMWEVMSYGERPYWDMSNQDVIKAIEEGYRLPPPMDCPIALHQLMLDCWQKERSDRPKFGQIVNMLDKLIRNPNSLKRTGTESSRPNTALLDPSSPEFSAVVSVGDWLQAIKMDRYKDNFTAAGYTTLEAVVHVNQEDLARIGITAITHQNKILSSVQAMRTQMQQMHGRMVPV

In experiment [1], `Cn1cc(-n2cnc3c(NCc4nc5cc(Cl)c(Cl)cc5[nH]4)nc(N4CCOCC4)nc32)cn1` gave a % of control of 0.55%.
Take `COCC(=O)NC/C=C/c1ccc2ncnc(Nc3ccc(Oc4ccc(C)nc4)c(C)c3)c2c1` [CP-724714]: on Ephrin type-A receptor 4, the % of control turned out to be 98%.
`Cc1cc([C@@H](C)Nc2ccccc2C(=O)O)c2nc(N3CCOCC3)cc(=O)n2c1` [AZD-6482] showed a % of control in experiment [2] of 100%.
Regarding `Cc1cc(CN)cc(C)c1-c1ncn(C)c1-c1cncn1C`, the % activity is > 90% in experiment [3] (at 1 µM) and > 80% in experiment [3] (at 10 µM).
Take `O[C@H]1CC[C@H](Nc2ncc3nc(Nc4c(F)cc(F)cc4F)n([C@H]4CCOC4)c3n2)CC1`: the % of control in experiment [4] was determined as 86%.
The molecule `CCC(=O)N1CCN(c2ccc(-n3c(=O)ccc4cnc5ccc(-c6cnc7ccccc7c6)cc5c43)cc2C(F)(F)F)CC1` had a % of control in experiment [5] of 80%.
As for `Nc1cnc(N2CCc3cc(S(=O)(=O)Nc4c(F)cc(Cl)cc4F)cc(N4CCCC4=O)c32)nc1` [TP-020n], the % of control in experiment [6] amounted to 98%.
